Source: patent US11090304B2 (Amgen Inc., priority 2018, dated 2021)

These compounds were tested against GDP-bound KRAS protein (aa 1-169), containing both G12C and C118A amino acid substitutions (Homo sapiens, UniProt P01116, C118A/G12C) (assay: Coupled nucleotide exchange assay (SOS-mediated, AlphaScreen)). Settings: 5 min compound pre-incubation.
Type: biochemical

Chain of GDP-bound KRAS protein (aa 1-169), containing both G12C and C118A amino acid substitutions (P01116 1-169 isoform P01116-2 G12C/C118A): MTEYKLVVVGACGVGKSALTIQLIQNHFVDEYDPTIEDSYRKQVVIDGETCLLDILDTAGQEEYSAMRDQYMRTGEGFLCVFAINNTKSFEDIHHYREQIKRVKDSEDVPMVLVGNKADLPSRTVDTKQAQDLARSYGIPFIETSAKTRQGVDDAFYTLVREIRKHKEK

Compound	Coupled exchange IC50 (5 min)
C=CC(=O)N1CCN(c2nc(=O)n(-c3c(C)ccnc3C(C)C)c3nc(-c4ccccc4F)c(Cl)nc23)[C@@H](C)C1 (single isomer, unassigned) [Example 111-2]	0.86 | nda μM
C=CC(=O)N1CCN(c2nc(=O)n(-c3c(C)cccc3C(C)C)c3nc(-c4cc(Cl)ccc4O)c(F)cc23)[C@@H](C)C1 (single isomer, unassigned) [Example 113]	1.02 | nda μM
C=CC(=O)N1CCN(c2nc(=O)n(-c3c(C)cccc3C(C)C)c3nc(-c4cc(Cl)ccc4O)c(F)cc23)[C@@H](C)C1 (single isomer, unassigned) [Example 114]	6.435 | nda μM
C=CC(=O)N1CCN(c2nc(=O)n(-c3c(C)cccc3C(C)C)c3nc(-c4nc(N)cc5ccccc45)c(F)cc23)[C@@H](C)C1 [71-2, 7-(3-amino-1-isoquinolinyl)-6-fluoro-1-(2-methyl-6-(2-propanyl)phenyl)-4-((2S)-2-methyl-4-(2-propenoyl)-1-piperazinyl)pyrido[2,3-d]pyrimidin-2(1H)-one]	2.17 | nda μM
C=CC(=O)N1CC(N(C)c2nc(=O)n(-c3c(C)ccnc3C(C)C)c3nc(-c4ccccc4F)c(Cl)cc23)C1 [76-2]	20.1 | nda μM
C=CC(=O)N1CCN(c2nc(=O)c(-c3ccccc3C)c3cc(-c4ccccc4F)c(C)nn23)[C@@H](C)C1 [77-2, 3-(2-fluorophenyl)-2-methyl-5-(2-methylphenyl)-8-((2S)-2-methyl-4-(2-propenoyl)-1-piperazinyl)-6H-pyrimido[1,6-b]pyridazin-6-one]	77.7 | nda μM
C=CC(=O)N1CCN(c2nc(=O)n(CC(F)(F)F)c3nc(-c4c(O)cccc4F)c(Cl)cc23)[C@@H](C)C1 [Example 54-7, 6-chloro-7-(2-fluoro-6-hydroxyphenyl)-4-((2S)-2-methyl-4-(2-propenoyl)-1-piperazinyl)-1-(2,2,2-trifluoroethyl) pyrido [2,3-d]pyrimidin-2(1H)-one]	1.75 | nda μM
C=CC(=O)N1CCN(c2nc(=O)n(-c3nc(C)ccc3C(C)C)c3nc(-c4c(O)cccc4F)c(Cl)cc23)[C@@H](C)C1 [Example 54-14, 6-chloro-7-(2-fluoro-6-hydroxyphenyl)-1-(6-methyl-3-(2-propanyl)-2-pyridinyl)-4-((2S)-2-methyl-4-(2-propenoyl)-1-piperazinyl) pyrido[2,3-d]pyrimidin-2(1H)-one]	12.4 | nda μM

Now from value to compound:

Coupled exchange IC50 (5 min)	Compound
3.22 | nda μM	C=CC(=O)N1CCN(c2nc(=O)n(-c3ccccc3C(C)C)c3cc(-c4ccccc4F)c(Cl)nc23)[C@@H](C)C1 (single isomer, unassigned) [Example 110-1]
0.677 | nda μM	C=CC(=O)N1CCN(c2nc(=O)n(-c3c(C(C)C)ncnc3N(C)C)c3nc(-c4ccccc4F)c(Cl)cc23)[C@@H](C)C1 (single isomer, unassigned) [Example 140-2]
23.9 | nda μM	C=CC(=O)N1CCN(c2nc(=O)n(-c3c(C(N)=O)cccc3C(C)C)c3nc(-c4ccccc4F)c(Cl)cc23)[C@@H](C)C1 (single isomer, unassigned) [Example 142-1]
13.5 | nda μM	C=CC(=O)N1CCN(c2nc(=O)n(-c3c(N)cccc3C(C)C)c3nc(-c4ccccc4F)c(Cl)cc23)[C@@H](C)C1 (single isomer, unassigned) [Example 155-2]
6.6 | nda μM	C=CC(=O)N1CCN(c2nc(CN(C)C)c(-c3ccccc3C(C)C)c3nc(-c4ccccc4F)c(Cl)cc23)CC1 [86-2, 1-(4-(3-chloro-7-((dimethylamino)methyl)-2-(2-fluorophenyl)-8-(2-(2-propanyl)phenyl)-1,6-naphthyridin-5-yl)-1-piperazinyl)-2-propen-1-one]
